Non-standard residues stand in square brackets, D forms with d. No end group written: not given here. NMeF = CN[C@@H](Cc1ccccc1)C(=O)O; Orn = NCCC[C@H](N)C(=O)O
How the values were obtained:
caspase-3 = caspase-3 activation assay; assay type: cell-based, human; details: for caspase-3 activation / induction of caspase-3 mediated apoptosis: SH-SY5Y cells; for caspase-3 activation: 72 h; for induction of caspase-3 mediated apoptosis: trimers at 6 μM, within 72 h; for caspase-3 activity level compared to staurosporine: after treatment of SH-SY5Y cells
Experimental: One of the ways in which A oligomers elicit toxicity is through induction of caspase-3 mediated apoptosis. Trimers 3 and 4 were evaluated for their ability to induce caspase-3 mediated apoptosis using a rhodamine-based caspase-3 activity assay.
The toxicities of peptides 1 and […], and trimers 3 and 4 toward SH-SY5Y cells were assessed by LDH release and caspase-3 activation assays. Cells were incubated in the presence or absence of equivalent concentrations of peptides 1 or 3, or trimers 3 and 4 for 72 h in 96-well plates. The LDH release assay was performed using the Pierce LDH Cytotoxicity Assay Kit from Thermo Scientific. The caspase-3 assay was performed using the Roche APO-One Homogeneous Caspase-3/7 Assay. Experiments were performed in replicates of five and an additional 10 wells were used for controls. Cells were cultured in the inner 60 wells (rows B-G, columns 2-11) of the 96-well plate. DMEM:F12 media (100 μL) was added to the outer wells (rows A and H, columns 1 and 12), in order to ensure the greatest reproducibility of data generated in the inner wells.
SH-SY5Y cells were plated in a 96-well plate at 30,000 cells per well. Cells were incubated in 100 μL of a 1:1 mixture of DMEM:F12 media supplemented with 10% fetal bovine serum, 100 U/mL penicillin, and 100 μg/mL streptomycin at 37° C. in a 5% CO2 atmosphere and allowed to adhere to the bottom of the plate for 24 hours.
After 24 hours, the culture media was removed and replaced with 90 μL of serum-free DMEM:F12 media. A 10 μL aliquot of the working solutions of peptides 1 or 2, or trimers 3 and 4 was added to each well, for a well-concentration of 18 μM and 9 μM for peptides 1 and 2, 6 μM and 3 μM for trimer 3 or 6 μM, 3 μM, 1.5 μM, and 0.75 μM for trimer 4. Experiments were run in replicates of five. Five wells were used as controls and received a 10 μL aliquot of deionized water (vehicle). Another five wells were left untreated, to be subsequently used as controls with lysis buffer for the LDH release assay, or staurosporine for the caspase-3 activation assay. Cells were incubated at 37° C. in a 5% CO2 atmosphere for 72 hours.
After 67 hours, 10 μL of 10× staurosporine was added to the control wells, and the cells were incubated for an additional 5 h. Next, the compound-containing media was removed and replaced with 25 μL of fresh serum-free DMEM/F12 media. A 25-μL aliquot of caspase-3 substrate, prepared according to manufacturer's protocol, was then added to each well. The plate was sealed with a clear adhesive plate sealer and fluorescence was monitored over 18 h while shaking at 250 rpm using a Gemini XPS fluorescence plate reader (excitation at 499 nm, emission at 521 nm). Data from the 18 h time point were processed by subtracting the relative fluorescence units (RFU) of the vehicle control wells from the RFU of the peptides 1 and 2 or trimers 3 and 4-treated wells.

[1] = size exclusion chromatography in Tris buffer; assay type: physicochemical; details: SEC
Text: The elution profile of peptide 8 was compared to the size standards vitamin B12, aprotinin, and cytochrome c, as well as peptide 2. Peptide 8 elutes as a broad peak with three distinct humps (FIG. 41B). […] Peptide 2 elutes as two distinct peaks: a larger peak with an elution volume consistent with the molecular weight of a dimer, and a smaller peak with an elution volume consistent with the molecular weight of a trimer (FIG. 41B). […]

[2] = X-ray crystallography, oligomers in the crystal; assay type: physicochemical; details: crystal state
Experimental: The structures of trimers 3 and 4 were elucidated by X-ray crystallography. One of the challenges in X-ray crystallography is determining the X-ray crystallographic phases. Doing so often requires incorporation of a heavy atom—such as selenium, bromine or iodine—through covalent modification. In previously solving the X-ray crystallographic structures of peptides 1 and 2, homologues were prepared containing p-iodophenylalanine. In solving the X-ray crystallographic structures of trimers 3 and 4, two techniques for X-ray crystallographic phase determination that have not been widely used for peptides were employed: sulfur single-wavelength anomalous diffraction (S-SAD) and post-crystallization incorporation of iodide ions into the crystal lattice.
S-SAD was used to determine the X-ray crystallographic structure of trimer 4. The intrinsic anomalous scattering of the sulfur atoms in the asymmetric unit provided sufficient data to determine the X-ray crystallographic phases. […]
Diffraction data for trimers 3 and 4 were collected on a Rigaku Micromax-007HF X-ray diffractometer with a rotating copper anode at 1.54 Å wavelength with 0.5° oscillation. […] Coordinates for the anomalous signals were determined by HySS in the Phenix software suite 1.10.1. Electron density maps were generated using anomalous coordinates determined by HySS as initial positions in Autosol. […]

peptide 1: macrocyclic β-sheet peptide: Aβ17-23 and Aβ30-36 strands linked by two δOrn turns, Orn35, N-methyl on G33 (Seq. ID 18-19)
caspase-3 activation (caspase-3): no | induction of caspase-3 mediated apoptosis (caspase-3): little or no effect

peptide 2: macrocyclic β-sheet peptide: Aβ17-23 and Aβ30-36 strands linked by two δOrn turns, Orn35, N-methyl on F20 (Seq. ID 20-21)
oligomer size [1]: dimer, trimer | caspase-3 activation (caspase-3): no | induction of caspase-3 mediated apoptosis (caspase-3): little or no effect

trimer 3: symmetric tris-disulfide crosslinked trimer generated from peptide 3 (chain 1 [Orn]CVFFCED; chain 2 [Orn]AIIGL[Orn]V; not fully specified (some residues); also: symmetric tris-disulfide crosslinked trimer, macrocyclic by macrolactamization, linkage of strands not given here)
oligomer size by crystallography [2]: 6 | caspase-3 activation (caspase-3): yes | caspase-3 activity level compared to staurosporine (caspase-3): comparable | induction of caspase-3 mediated apoptosis (caspase-3): induced apoptosis

trimer 4: symmetric tris-disulfide crosslinked trimer generated from peptide 4 (chain 1 [Orn]CVF[NMeF]CED; chain 2 [Orn]AIIGL[Orn]V; also: symmetric tris-disulfide crosslinked trimer, macrocyclic by macrolactamization, linkage of strands not given here)
caspase-3 activation (caspase-3): yes | caspase-3 activity level compared to staurosporine (caspase-3): comparable | induction of caspase-3 mediated apoptosis (caspase-3): induced apoptosis
